According to US5710011A, “Mediators to oxidoreductase enzymes” (Medisense, Inc., priority 1992, dated 1998):
Blank lines part the entries; values can stand above or below the compound they belong to.

What was measured:
[1] = Cyclic voltammetry of the complexes in aqueous buffer (PBS); assay type: physicochemical; conditions: for EOX: arene chromium tricarbonyl complexes, aqueous electrochemistry; for potential of the voltammetric wave: manganese complexes in aqueous buffer (PBS)
[2] = target: T1, glucose oxidase (GOD) (Aspergillus niger, UniProt P13006); assay: Mediation to glucose oxidase in solution (catalytic wave, enzyme titration in 0.1 M glucose/PBS); assay type: biochemical
[3] = target: T1, glucose oxidase (GOD); conditions: literature value (Anal. Chem., 56 (1984) 667); cited from earlier work
[4] = target: T2, Horseradish peroxidase (HRP) (Armoracia rusticana, UniProt P00433); assay: Mediation to horseradish peroxidase, rotating ring-disk voltammetry; assay type: biochemical; conditions: mediator 0.5 mM, HRP 280 U, ring poised at -100 mV, disk scanned -100 to -600 mV
T2 sequence (P00433 31-338): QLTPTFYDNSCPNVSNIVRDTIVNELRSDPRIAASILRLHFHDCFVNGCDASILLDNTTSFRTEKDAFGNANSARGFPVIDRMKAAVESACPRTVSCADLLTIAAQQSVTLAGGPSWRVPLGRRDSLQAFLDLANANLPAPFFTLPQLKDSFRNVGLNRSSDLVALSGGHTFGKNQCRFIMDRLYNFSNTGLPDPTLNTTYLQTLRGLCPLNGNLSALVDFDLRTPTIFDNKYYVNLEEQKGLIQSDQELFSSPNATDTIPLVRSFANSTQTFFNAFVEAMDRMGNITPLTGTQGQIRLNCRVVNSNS
Description: (§1) The phosphate buffer solution (PBS) of 0.15 M phosphate (with 0.2 M sodium chloride as supporting electrolyte), pH 7.0, containing 0.1 M glucose was prepared using Analar reagents from Merck BDH. The solution was stored overnight at 4° C. prior to use to allow equilibration of the α- and β-anomers. Glucose oxidase (EC 1.1.3.4 from Aspergillus niger) was supplied by Sturge Enzymes. Horseradish peroxidase was obtained from Biozyme.
The ability of the β-cyclodextrin adduct of the manganese complex Compound 10 to mediate with […] (HRP) was assessed by comparing it with 1,1'-dimethylferrocene ethanolamine using rotating ring-disk voltammetry according to a literature method (Anal. Chem., 62 (1990) 2429). Experiments were carded out using a glass cell (14 ml capacity) containing a platinum counter electrode with a calomel reference electrode. A gold-gold ring-disk electrode, rotated at 4 Hz, was immersed in a phosphate-buffered saline solution of the mediator (0.5 mM) containing HRP (280 U). The catalytic ring current was then measured while poising the ring electrode at -100 mV and scanning the disk electrode from -100 to -600mV to generate hydrogen peroxide.

[5] = pH 7
[6] = target: T1, glucose oxidase (GOD); assay: Mediation to glucose oxidase with screen-printed carbon electrodes containing the mediator; assay type: biochemical
Description: as §1
(§2) Screen-printed electrodes incorporating Compound 6 were produced from an organic carbon ink containing the chromium complex at a level of 3.5 mg/g ink. FIG. 2a comprises cyclic voltammograms of electrodes containing the chromium complex Compound 6 at 50 mV/s and 0.2 μA/cm in PBS, and FIG. 2b the catalytic wave upon addition of 100 μl glucose oxidase recorded at 20 mV/s and 0.5 μA/cm. […] From FIG. 2b, it is seen that GOD mediation occurs on applying mixtures of enzyme and glucose to the electrodes, with small catalytic currents of about 1 μA.
Further work with the dithiocarbamate complexes Compounds 10 to 12 was carried out with screen-printed carbon electrodes produced from carbon inks mixed with each of the complexes. […] Catalytic currents in the region of 4 μA were recorded in the presence of GOD and glucose. […]

[7] = Cyclic voltammetry of screen-printed carbon electrodes containing the complex; assay type: physicochemical; conditions: for oxidation wave potential: screen-printed carbon electrodes, scan rates 50 and 100 mV/s
Description: as §2
Further work with the dithiocarbamate complexes Compounds 10 to 12 was carried out with screen-printed carbon electrodes produced from carbon inks mixed with each of the complexes. […] Catalytic currents in the region of 4 μA were recorded in the presence of GOD and glucose. Variable but increased currents of up to 29 μA were obtained with 0.1 M glucose when the enzyme was confined in the carbon electrode with the mediator, see FIG. 9.

[8] = cited from earlier work
[9] = Solubility / stability in aqueous buffer; conditions: aqueous buffer / water
[10] = complex in aqueous buffer (PBS)
[11] = 0.5 mM in PBS with added β-cd (0.5-5.0 mM)

T1 sequence (P13006 17-605): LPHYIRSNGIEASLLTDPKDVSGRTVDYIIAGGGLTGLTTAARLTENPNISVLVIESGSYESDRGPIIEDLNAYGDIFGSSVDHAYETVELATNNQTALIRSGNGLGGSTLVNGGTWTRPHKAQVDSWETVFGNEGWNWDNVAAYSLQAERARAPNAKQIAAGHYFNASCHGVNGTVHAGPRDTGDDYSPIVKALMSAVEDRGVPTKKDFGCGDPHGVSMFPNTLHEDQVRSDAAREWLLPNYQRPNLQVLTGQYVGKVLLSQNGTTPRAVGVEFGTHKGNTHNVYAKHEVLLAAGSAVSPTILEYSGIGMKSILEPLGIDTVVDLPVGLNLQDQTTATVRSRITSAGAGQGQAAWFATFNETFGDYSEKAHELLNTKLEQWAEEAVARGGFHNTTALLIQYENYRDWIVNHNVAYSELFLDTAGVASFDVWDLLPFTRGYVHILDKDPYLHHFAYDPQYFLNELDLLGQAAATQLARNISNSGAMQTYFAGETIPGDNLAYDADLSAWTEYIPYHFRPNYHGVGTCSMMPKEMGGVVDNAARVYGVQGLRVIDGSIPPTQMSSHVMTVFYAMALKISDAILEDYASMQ

- oxidation potential of the species formed by decomposition ([1]; aqueous buffer, irreversibly oxidized): +230 mV
Compound: [MeCpMn(NO)(CO)2 ]PF6 [Compound 9]

Compound: Cc1cc[cH-]c1.[C-]#[O+].[C-]#[O+].[C-]#[O+].[Mn] [Compound 8, (methylcyclopentadienyl)manganese tricarbonyl]
- second order rate coefficient for the oxidation of reduced GOD ([2]; 0 to 25 μl GOD titrated into mediator in 0.1 M glucose/PBS, from icat versus [GOD]^1/2): 210000 M⁻¹ s⁻¹

Compound: ferrocene monocarboxylic acid
- second order rate constant for the oxidation of reduced GOD [3]: 200000 M⁻¹ s⁻¹

Compound: Nc1cc(N)cc(N)c1.[C-]#[O+].[C-]#[O+].[C-]#[O+].[Cr] [Compound 7]
- EOX [1]: +50 mV

- catalytic ring current, comparison of mediators [4]: identical catalytic currents
Compound: 1,1'-dimethylferrocene ethanolamine [reference compound]

Compound: [MeCpMn(NO)(S2 CNMe2)]β-cyclodextrin
- icat (catalytic wave) ([2]; upon addition of GOD and glucose, 0.1 M glucose/PBS): 9.7 μA
- solubility in PBS [5]: at least 0.5 mM
- ΔEp ([1]; 0.1 M glucose/PBS): 70 mV
- reversibility of the voltammetric wave [1, 10]: reversible wave
- potential of the voltammetric wave [1]: +255 mV
- catalytic ring current, comparison of mediators [4]: identical catalytic currents

Compound: Nc1ccc(N)cc1.[C-]#[O+].[C-]#[O+].[C-]#[O+].[Cr] [Compound 4]
- EOX [1]: +135 mV

- reversibility of the voltammetric wave [1, 10]: irreversible electrochemistry
- potential of the voltammetric wave [1]: about +600 mV
Compound: [MeCpMn(NO)(phen)]PF6 [Compound 15]

Compound: [MeCpMn(NO)(S2 CNMe2)] [Compound 10]
- catalytic current ([6]; 0.1 M glucose, enzyme confined in the carbon electrode with the mediator): up to 29 μA
- oxidation wave potential [7]: +240 mV

Compound: [C-]#[O+].[C-]#[O+].[C-]#[O+].[Mn].[c-]1[c-][c-][cH-][c-]1 [Cyclopentadienyl manganese tricarbonyl]
- oxidation potential, more positive than ferrocene ([8]; in acetonitrile, relative to ferrocene): ~1.2 V

Compound: [C-]#[O+].[C-]#[O+].[C-]#[O+].[Cr].c1ccccc1 [benzene chromium tricarbonyl]
- aqueous solubility (in words) [9]: negligible solubility in buffer
- half wave potential ([8]; in dichloromethane): +710 mV vs SCE

- reversibility of the voltammetric wave [1, 10]: reversible wave
- potential of the voltammetric wave [1]: +440 mV
Compound: [MeCpMn(NO)(CN)2 ]Na [Compound 13]

Compound: Cc1c(C)c(N)c(C)c(C)c1N.[C-]#[O+].[C-]#[O+].[C-]#[O+].[Cr] [Compound 6]
- catalytic current ([6]; mixtures of GOD and glucose applied to screen-printed electrodes containing the mediator): about 1 μA
- mid-point potential ([7]; screen-printed electrodes, 3.5 mg complex/g ink, PBS applied): -15 mV
- reversibility of the voltammetric wave ([7]; screen-printed electrodes, PBS applied): reversible wave
- EOX [1]: +40 mV
- reversibility of the voltammetric wave [1, 10]: reversible wave

- reversibility of the voltammetric wave [1, 10]: irreversible electrochemistry
- potential of the voltammetric wave [1]: about +600 mV
Compound: [MeCpMn(NO)(bipy)]PF6 [Compound 14]

Compound: COc1ccc(N)c(OC)c1.[C-]#[O+].[C-]#[O+].[C-]#[O+].[Cr] [Compound 5]
- EOX [1]: +170 mV

- E1/2 [1, 11]: +5 mV
- ΔEp [1, 11]: 65 mV
- reversibility of the voltammetric wave ([1]; 0.5 mM in buffer with added β-cd (0.5-5.0 mM)): reversible wave
- Eox ([1]; 0.6 mM in PBS, 50 mV/s): -25 mV
Compound: [MeCpMn(NO){(SCCN)2 }][NEt4 ] [Compound 16]

Compound: OCCN(CCO)c1ccccc1.[C-]#[O+].[C-]#[O+].[C-]#[O+].[Cr] [Compound 3]
- EOX [1]: +250 mV

Compound: CN(C)c1ccccc1.[C-]#[O+].[C-]#[O+].[C-]#[O+].[Cr] [Compound 1]
- EOX [1]: +250 mV

- oxidation wave potential [7]: +300 mV
Compound: [MeCpMn(NO)(S2 CNEt2)] [Compound 11]
